Values joined by “and” are separate entries in the source; they are usually repeats but may differ in a detail not shown here. Identical values can stand only once.
Tested on: 439559-082-T-J2-PDC spheroids viability
Experiment: Anticancer human tumor 439559-082-T-J2-PDC patient-derived colon adenocarcinoma cell line growth inhibition [GQUAD]
Conditions: for viability, T/C: stronger effect = lower value
Text: DNA G-quadruplex Stabilizer Agents in Combinations in Complex Spheroids
A high-throughput screen of multi-cell type tumor spheroids was designed to identify active combinations of DNA G-quadruplex stabilizer agents and targeted small molecules. Complex spheroids include a stromal component modeled by human endothelial cells (HUVEC) and fibroblasts modeled by human mesenchymal stem cells (MSCs). The concentration ranges selected for each drug and investigational agent were based upon clinically achievable concentrations if the clinical Cmax of the agent was known.
Compounds. The drugs and investigational agents: pidnarulex (CX-5461; NSC782164), APTO-253 (NSC789042), BRACO-19 (NSC847499), peposertib (NSC802822), ceralasertib (NSC780249), elimusertib (NSC800525), camonsertib (NSC841442), AZD-1390 (NSC803789), olaparib (NSC753686), talazoparib (NSC767125), ART-558 (NSC835418), sotorasib (NSC818433), MRTX-1133 (NSC836407), SN-38 (NSC673596), topotecan (NSC609699), etoposide (NSC141540), doxorubicin (NSC123127), gemcitabine (NSC613327), 5-fluorouracil (NSC19893), paclitaxel (NSC125973), vemurafenib (NSC761431), panobinostat (NSC761190), R-306465 (JNJ-16241199; NSC773264), adavosertib (NSC754352), TP-3654 (NSC805149), carboplatin (NSC241240), KSQ-4279 (NSC840948), and staurosporine (NSC755774) were obtained from the National Cancer Institute (NCI) Developmental Therapeutics Program Chemical Repository (34). The FDA-approved anticancer drug set is available from the NCI Developmental Therapeutics Program. […] The stock solutions were prepared in dimethyl sulfoxide (DMSO, Sigma-Aldrich, St. Louis, MO, cat. D2650) at 800-fold the tested concentration and stored at -70 degrees C prior to their use. All drugs and investigational agents were tested over a range starting from a high concentration at or near the clinical Cmax and decreasing in half-log increments. If the clinical Cmax for an agent had not been determined, the highest concentration tested was 10 microM.
2.3 Cell Culture. All cells were maintained in an incubator at 37 degrees C and 5% CO2 with 95% humidity. The PDC lines were cultured according to standard operating procedures established by the NCI PDMR. All PDCs were thawed and cultured in Matrigel-coated flasks prepared with a working solution of 1X Ham's F-12 nutrient mix, without supplementation (Invitrogen, cat. 11765054), 100 U/mL penicillin-streptomycin (Invitrogen, cat. 15140122), and 2.5% Matrigel (Corning Inc., cat. 354248) for the first three passages. The 857933-349-R-J2-PDC line was cultured in 6C/Colon 1B media, which includes advanced DMEM/F-12 (Thermo Fisher Scientific, cat. 12634028), 10 mM HEPES (Thermo Fisher Scientific, cat. 15630080), 1X GlutaMAX supplement (Thermo Fisher Scientific, cat. 35050061), 0.1 mg/mL primocin (InvivoGen, cat. ant-pm-2), 10% defined fetal bovine serum, heat inactivated (HyClone Laboratories Inc., cat. SH30070.03HI), 50% L-WRN conditioned media (ATCC, cat. CRL-3276), 1.25 mM N-Acetyl-L-cysteine (Sigma-Aldrich, cat. A9165), 10 mM nicotinamide (Sigma-Aldrich, cat. N0636), 1X B-27 supplement (Thermo Fisher Scientific, cat. 17504044), 1X N-2 supplement (Thermo Fisher Scientific, cat. 17502048), 10 microM Y-27632 dihydrochloride (Tocris Bioscience, cat. 1254), and 50 ng/mL human EGF recombinant protein (Thermo Fisher Scientific, cat. PHG0311). The 485176-168-R4-J1-PDC line was cultured in Panc media, which includes all 6C/Colon 1B media components plus 100 ng/mL human FGF-10 (Thermo Fisher Scientific, cat. 100-26), 500 nM SB-431542 (Selleckchem, cat. S1067), and gastrin (Tocris, cat. 3006).
[…]
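Further: spheroids exposed to the agents for 7 days before readout.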
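Wherever viability, T/C is given: percent of luminescence signal in DMSO vehicle wells taken as 100% viability.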

## O=C(NO)c1cnc(N2CCN(S(=O)(=O)c3ccc4ccccc4c3)CC2)nc1
Compound 0.0316 µM
  viability, T/C: 84.3% and 92.9% and 85.8%
Compound 0.1 µM
  viability, T/C: 81.2% and 79.9% and 84.2%
Compound 0.316 µM
  viability, T/C: 84% and 62.6% and 64.7%
Curve of compound
  IC50: 1.76 µM and 0.401 µM and 0.438 µM

## O=c1[nH]cc(F)c(=O)[nH]1
Compound 0.0316 µM
  viability, T/C: 93.1% and 96.1% and 94.6%
Compound 0.1 µM
  viability, T/C: 103% and 102% and 97.4%
Compound 0.316 µM
  viability, T/C: 85.9% and 79.7% and 88.7%
Compound 1 µM
  viability, T/C: 76.7% and 78.2% and 78.6%
Compound 3.16 µM
  viability, T/C: 79.4% and 74.2% and 76.8%
Compound 10 µM
  viability, T/C: 71.5% and 77.1% and 70.3%
Curve of compound
  IC50: > 10 µM

## CC(C)n1c(=O)n(C)c2cnc3cc(F)c(-c4ccc(OCCCN5CCCCC5)nc4)cc3c21 + CN(C)c1ccc(Nc2c3ccc(NC(=O)CCN4CCCC4)cc3nc3cc(NC(=O)CCN4CCCC4)ccc23)cc1
Curve of first compound, second compound 0.0316 µM
  IC50: > 10 µM
Curve of first compound, second compound 0.1 µM
  IC50: > 10 µM
Curve of first compound, second compound 0.316 µM
  IC50: > 10 µM
Curve of first compound, second compound 1 µM
  IC50: > 10 µM
Curve of first compound, second compound 3.16 µM
  IC50: > 10 µM
Curve of first compound, second compound 10 µM
  IC50: > 10 µM
Second compound 0.0316 µM, first compound 0.0316 µM
  viability, T/C: 108%
Second compound 0.0316 µM, first compound 0.1 µM
  viability, T/C: 98.2%
Second compound 0.0316 µM, first compound 0.316 µM
  viability, T/C: 118%
Second compound 0.0316 µM, first compound 1 µM
  viability, T/C: 116%
Second compound 0.0316 µM, first compound 3.16 µM
  viability, T/C: 122%
Second compound 0.0316 µM, first compound 10 µM
  viability, T/C: 91.8%
Second compound 0.1 µM, first compound 0.0316 µM
  viability, T/C: 105%
Second compound 0.1 µM, first compound 0.1 µM
  viability, T/C: 112%
Second compound 0.1 µM, first compound 0.316 µM
  viability, T/C: 115%
Second compound 0.1 µM, first compound 1 µM
  viability, T/C: 119%
Second compound 0.1 µM, first compound 3.16 µM
  viability, T/C: 113%
Second compound 0.1 µM, first compound 10 µM
  viability, T/C: 91.9%
Second compound 0.316 µM, first compound 0.0316 µM
  viability, T/C: 94.5%
Second compound 0.316 µM, first compound 0.1 µM
  viability, T/C: 113%
Second compound 0.316 µM, first compound 0.316 µM
  viability, T/C: 115%
Second compound 0.316 µM, first compound 1 µM
  viability, T/C: 122%
Second compound 0.316 µM, first compound 3.16 µM
  viability, T/C: 117%
Second compound 0.316 µM, first compound 10 µM
  viability, T/C: 100%
Second compound 1 µM, first compound 0.0316 µM
  viability, T/C: 101%
Second compound 1 µM, first compound 0.1 µM
  viability, T/C: 105%
Second compound 1 µM, first compound 0.316 µM
  viability, T/C: 111%
Second compound 1 µM, first compound 1 µM
  viability, T/C: 113%
Second compound 1 µM, first compound 3.16 µM
  viability, T/C: 109%
Second compound 1 µM, first compound 10 µM
  viability, T/C: 99.6%
Second compound 3.16 µM, first compound 0.0316 µM
  viability, T/C: 105%
Second compound 3.16 µM, first compound 0.1 µM
  viability, T/C: 113%
Second compound 3.16 µM, first compound 0.316 µM
  viability, T/C: 121%
Second compound 3.16 µM, first compound 1 µM
  viability, T/C: 108%
Second compound 3.16 µM, first compound 3.16 µM
  viability, T/C: 117%
Second compound 3.16 µM, first compound 10 µM
  viability, T/C: 83.5%
Second compound 10 µM, first compound 0.0316 µM
  viability, T/C: 100%
Second compound 10 µM, first compound 0.1 µM
  viability, T/C: 92%
Second compound 10 µM, first compound 0.316 µM
  viability, T/C: 99%
Second compound 10 µM, first compound 1 µM
  viability, T/C: 112%
Second compound 10 µM, first compound 3.16 µM
  viability, T/C: 112%
Second compound 10 µM, first compound 10 µM
  viability, T/C: 59.4%

From PubChem BioAssay AID2060510 (Molecular Pharmacology Branch, DTP, NCI, 2025)
